Measurements published in patent US12138254B2, “Chronic nightly dosing of lasmiditan for migraine prevention” (Eli Lilly and Company, priority 2018, dated 2024).
Entries after “also recorded” stand apart in the source; their conditions may differ.

How the values were obtained:
[1] = tested on: dural plasma protein extravasation; assay: Trigeminal stimulation-induced dural plasma protein extravasation (PPE) in rats; assay type: in vivo, Sprague-Dawley rats
Description: Migraine is a painful condition thought to involve neurogenic inflammation of the dural membrane and activation of the trigeminal nervous system. The 5-HT1F receptor is widely expressed in the CNS and peripheral nerves, including the trigeminal ganglia, dorsal root ganglia and trigeminal nucleus caudalis. Plasma protein extravasation (PPE), one component of neurogenic inflammation, can be induced in the dura of rats by electrically stimulating the trigeminal ganglion. Considering the role of the trigeminal nerve in the physiology of migraine, this study is useful to characterize the ability of lasmiditan-hemisuccinate to block plasma protein extravasation in the dura of rats following electrical stimulation of the trigeminal ganglion.
To investigate the potential of lasmiditan to modify the dysfunction in the target tissue, the duration of effect following a single oral dose of lasmiditan-hemisuccinate was also determined. Electrical stimulation of the trigeminal ganglion of rats and guinea pigs can be used to induce neurogenic inflammation in the meninges (dura). Briefly, unilateral electrical stimulation of either the left or right trigeminal ganglion using electrodes implanted stereotaxically is used to induce ipsilateral neurogenic inflammation and the increased extravasation of plasma proteins.
Lasmiditan-hemisuccinate is dissolved in sterile water. All doses of lasmiditan are reported as free base equivalent doses, accounting for the weight of the salt. Envigo Sprague-Dawley, Sprague-Dawley male rats (250-350 grams, n=4/group) are fasted overnight prior to dosing. The animals are orally gavaged (2 mL/kg dose volume) with test compound or vehicle one hour prior to stimulation time and returned to their cages with only water available. Approximately 50 minutes post-dosing, the rats are anesthetized with Nembutal (65 mg/kg, ip.) and implanted with stainless steel stimulating electrodes (Rhodes Medical Systems, Inc.) to a depth of 9.2 mm. from the dura. The femoral vein is exposed and fluorescein isothiocyanate-labeled bovine serum albumin (FITC-BSA) (20 mg/kg, iv.), is injected into the femoral vein 2 minutes prior to stimulation. The FITC-BSA functions as a marker for protein extravasation. The left trigeminal ganglion is stimulated for 5 minutes at a current intensity of 1.0 mA (5 Hz, 5 msec pulse duration) with a Model S48 Grass Instrument Stimulator with PSIU6 photoelectric isolation unit (Grass-Telefactor). Five minutes following stimulation, a blood sample is collected by cardiac puncture and the rats are sacrificed by exsanguination with 40 ml of saline. One milliliter of blood is collected and placed in a 1.5 ml EDTA coated tube (Fisher Cat. #540734) on ice. Plasma is separated via centrifugation at 10,000 rpm (941 g) for thirty minutes at 4° C. The top of the skull is removed to collect the brain and dural membranes. The brain and plasma samples are frozen at −80° C. until thawed for compound quantification. The membrane samples are removed from both hemispheres, rinsed with water, and spread flat on microscope slides. The slides are dried for 15 minutes on a slide warmer, then the tissues are cover-slipped with a 70% glycerol/water solution. A fluorescence microscope (Zeiss) equipped with a grating monochromator and a spectrophotometer is used to quantify the amount of FITC-BSA dye in each dural sample. The extravasation induced by electrical stimulation of the trigeminal ganglion is an ipsilateral effect (i.e. occurs only on the side of the dura in which the trigeminal ganglion was stimulated). This allows the other (unstimulated) half of the dura to be used as the control. The ratio of extravasation in the dura from the stimulated side versus the unstimulated side is calculated and reported as the extravasation ratio for each animal. The mean extravasation ratio and standard error of the mean (SEM) are calculated for each treatment group. Controls yield a ratio of approximately 1.8. […]

[2] = tested on: patients with migraine; assay: GLADIATOR open-label Phase 3 study, long-term intermittent lasmiditan; MIDAS interim analysis; assay type: in vivo, human; settings: for change in MIDAS migraine disability, headache days and headache pain/severity over time: lasmiditan 100 mg or 200 mg, up to 12 months
Method: The placebo-controlled Phase 3 studies SAMURAI (NCT02439320) and SPARTAN (NCT02605174) evaluated lasmiditan 50 mg [SPARTAN only], 100 mg and 200 mg. […] GLADIATOR (NCT02565186) is a prospective randomized open-label Phase 3 study to evaluate long-term intermittent use of lasmiditan (100 mg or 200 mg) for acute treatment of migraine. An interim analysis of the effects of lasmiditan on migraine disability assessed with the MIDAS scale in GLADIATOR is described below, and has provided surprising and unexpected evidence of persistent beneficial effects in migraine patients.
Patients who completed SAMURAI or SPARTAN were offered participation in GLADIATOR with randomization to lasmiditan 100 mg or lasmiditan 200 mg which represents an uncontrolled, open-label study. […] This interim analysis includes patients with MIDAS score data at baseline of GLADIATOR and post-baseline assessments. The analysis presented is based on the MIDAS questionnaire administered at baseline and at months 3, 6, 9 and 12. An additional analysis was also conducted in the subgroup of patients who completed 12 months. Changes were modelled using a mixed model repeated measures analysis MIDAS measures lost time due to migraine in days over 3 months. Domains included are activity limitations at work, household work or family, social and leisure activity.
Key inclusion criteria were patients who were eligible for SAMURAI or SPARTAN and had at least moderate migraine disability (MIDAS score ≥11). Patients were randomized 1:1 for acute treatment of migraine with either lasmiditan 100 mg for up to 12 months, or lasmiditan 200 mg for up to 12 months. Patients used lasmiditan as the first treatment for each new migraine attack (≤4 hours of Migraine pain onset). […] Assessments of safety and efficacy were conducted, including MIDAS questionnaires at baseline and months 3, 6, 9 and 12. MIDAS Questionnaire (See for example Stewart et al., Neurology 1999; 53:988-94, Stewart et al., Neurology 2001; 56: S20-8) The sum of Questions 1-5 below represents the Total MIDAS score. • 1. […]

[3] = tested on: simulated driving performance; assay: Computer-based driving simulator study in healthy volunteers

## CN1CCC(C(=O)c2cccc(NC(=O)c3c(F)cc(F)cc3F)n2)CC1 [Lasmiditan, 2,4,6-trifluoro-N-[6-(1-methyl-piperidin-4-ylcarbonyl)-pyridin-2-yl]-benzamide]
[1]; 0.1 mg/kg po, 1 hour post-dose
  inhibition of dural plasma protein extravasation vs vehicle: non-efficacious
[1]; single 10 mg/kg po, 24 hours post-dose
  inhibition of dural plasma protein extravasation vs vehicle: equally efficacious
[1]; single 10 mg/kg po, 48 hours post-dose
  inhibition of dural plasma protein extravasation vs vehicle: not at 48 hours
[2]; GLADIATOR MIDAS outcomes
  difference between lasmiditan 100 mg and 200 mg doses, any outcome: no significant differences
[2]
  change in MIDAS migraine disability, headache days and headache pain/severity over time: decreases over time
[2]; listed as lasmiditan
  change in MIDAS migraine disability, headache days and headache pain/severity over time: large, clinically meaningful improvement; also recorded: a decrease over the 12-month treatment period
[3]; after dosing
  time by which impaired simulated driving performance resolved: ≤ 8 h
[3]; all doses, acute treatment
  driving impairment / simulated driving performance: impair simulated driving performance in a dose-dependent manner; also recorded: associated with driving impairment
